Assay [1] deals with T1, human GHS receptor (Homo sapiens, UniProt Q92847). Description: h bind IC50 (binding assay, Table 1). The note with it: human receptor; Table 1.
Assay [2] addresses T1, human GHS receptor. Description: Ghrelin IP1 agonist assay (IP1 HTRF). Particulars: for Emax: 2 h, agonist effect as % maximal effect of GHRP-6 (5 μM), read-out: h IP1 ag %; for EC50: HEK293s cells stably expressing human GHS receptor, 2 hours at 37° C., read-out: h IP1 ag EC50. It is filed as cell-based. Set-up: expressed in transfected cells; host or cells: HEK293s. As for the experimental part:
In HEK293s cells stably expressing human GHS receptor (In-house), agonist activity was assessed by measuring intracellular myo-Inositol 1 phosphate (IP1) using the IP1 HTRF assay kit (Cisbio International).
Cells were harvested using accutase (Sigma), spun down at 1000 rpm for 5 minutes and resuspended in stimulation buffer (as above) containing 0.02% fatty acid free BSA at a density of 1.43E6cells/ml.
Agonist effect of the compound was expressed as % maximal effect of GHRP-6 (5 μM: Bachem). Sigmoidal curves were fitted by Origin 7.5 Client and EC50 values determined.
(In TR-FRET formats the signal depends on donor and acceptor labels being close together.)

The structures appear in SMILES notation.

T1 sequence (Q92847 whole entry): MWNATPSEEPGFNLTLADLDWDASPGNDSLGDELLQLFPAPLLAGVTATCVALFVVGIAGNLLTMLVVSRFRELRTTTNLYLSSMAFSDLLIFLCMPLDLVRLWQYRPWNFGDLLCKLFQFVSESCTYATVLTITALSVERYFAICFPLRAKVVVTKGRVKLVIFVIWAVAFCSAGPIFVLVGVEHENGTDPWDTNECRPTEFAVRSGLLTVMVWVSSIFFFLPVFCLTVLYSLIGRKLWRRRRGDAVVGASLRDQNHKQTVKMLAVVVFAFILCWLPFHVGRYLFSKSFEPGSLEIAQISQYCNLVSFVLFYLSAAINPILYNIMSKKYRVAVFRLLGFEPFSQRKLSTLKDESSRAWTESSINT

Take `O=C(NC(=O)c1ccccc1Cl)Nc1nc2ccc(S(=O)(=O)CCN3CCOCC3)cc2s1` [Example 1, 2-Chloro-N-[[6-(2-morpholin-4-ylethylsulfonyl)benzothiazol-2-yl]carbamoyl]benzamide]: the IC50 (as a rule, the concentration needed to halve the response being measured) at human GHS receptor [1] came to 64.4 nM. Also, on human GHS receptor [2], the Emax was determined as 24% and the EC50 (as a rule, the midpoint of the concentration-response curve) turned out to be 29.2 nM.

`COCCNCCS(=O)(=O)c1ccc2nc(NC(=O)NC(=O)c3ccccc3Cl)sc2c1` [Example 2, 2-Chloro-N-[[6-[2-(2-methoxyethylamino)ethylsulfonyl]benzothiazol-2-yl]carbamoyl]benzamide] registered an IC50 on human GHS receptor [1] of 13.3 nM. In addition, on human GHS receptor [2], the Emax is 40.8% and the EC50 was 17.6 nM.

As to `CNCCS(=O)(=O)c1ccc2nc(NC(=O)NC(=O)c3ccccc3Cl)sc2c1` [Example 4, 2-Chloro-N-[[6-(2-methylaminoethylsulfonyl)benzothiazol-2-yl]carbamoyl]benzamide], the IC50 on human GHS receptor [1] is 77.3 nM. In addition, on human GHS receptor [2], the Emax was determined as 58.5% and the half-maximal effective concentration (EC50) is 9.46 nM.

On to `O=C(NC(=O)c1ccccc1Cl)Nc1nc2ccc(S(=O)(=O)CCN3CCNCC3)cc2s1` [Example 8, 2-Chloro-N-[[6-(2-piperazin-1-ylethylsulfonyl)benzothiazol-2-yl]carbamoyl]benzamide], for which the IC50 at human GHS receptor [1] worked out at 69.6 nM. At human GHS receptor [2], the Emax is 39.9% and the 50% effective concentration (EC50) turned out to be 36.4 nM.

At human GHS receptor [1], `CC(C)NCCS(=O)(=O)c1ccc2nc(NC(=O)NC(=O)c3ccccc3Cl)sc2c1` [Example 10, 2-Chloro-N-[[6-[2-(propan-2-ylamino)ethylsulfonyl]benzothiazol-2-yl]carbamoyl]benzamide] showed an IC50 of 27.3 nM. At human GHS receptor [2], the Emax was 44.1% and the EC50 was 18.9 nM.

As to `O=C(NC(=O)c1ccccc1Cl)Nc1nc2ccc(S(=O)(=O)CCN3CCC3)cc2s1` [Example 13, N-[[6-[2-(Azetidin-1-yl)ethylsulfonyl]benzothiazol-2-yl]carbamoyl]-2-chloro-benzamide], the IC50 at human GHS receptor [1] was found to be 162 nM. Further, at human GHS receptor [2], the Emax was determined as 52.5% and the EC50 was determined as 55.5 nM.

For the molecule `O=C(NC(=O)c1ccccc1Cl)Nc1nc2ccc(S(=O)(=O)CCNCCO)cc2s1` [Example 14, 2-Chloro-N-[[6-[2-(2-hydroxyethylamino)ethylsulfonyl]benzothiazol-2-yl]carbamoyl]benzamide], on human GHS receptor [1], the IC50 was determined as 321 nM. For the same molecule, on human GHS receptor [2], the Emax was determined as 47.6% and the EC50 is 166 nM.

With `O=C(NC(=O)c1ccccc1Cl)Nc1nc2ccc(S(=O)(=O)CCN3CC[C@H](F)C3)cc2s1` [Example 16, 2-Chloro-N-[[6-[2-[(3S)-3-fluoropyrrolidin-1-yl]ethylsulfonyl]benzothiazol-2-yl]carbamoyl]benzamide], on human GHS receptor [1], the IC50 was 100 nM. At human GHS receptor [2], the Emax came to 34.1% and the EC50 turned out to be 64.4 nM.

`O=C(NC(=O)c1ccccc1Cl)Nc1nc2ccc(S(=O)(=O)CCNC3CCCC3)cc2s1` [Example 17, 2-Chloro-N-[[6-[2-(cyclopentylamino)ethylsulfonyl]benzothiazol-2-yl]carbamoyl]benzamide] came in with an IC50 at human GHS receptor [1] of 80.4 nM. At human GHS receptor [2], the Emax came to 42.1% and the EC50 was 6.03 nM.

`CC1CCC(C)N1CCS(=O)(=O)c1ccc2nc(NC(=O)NC(=O)c3ccccc3Cl)sc2c1` (centres unmarked) [Example 18, 2-Chloro-N-[[6-[2-(2,5-dimethylpyrrolidin-1-yl)ethylsulfonyl]benzothiazol-2-yl]carbamoyl]benzamide] gave a half-inhibitory concentration (IC50) on human GHS receptor [1] of 252 nM. Further, on human GHS receptor [2], the Emax stood at 47% and the EC50 was found to be 53.6 nM.

As for `O=C(NC(=O)c1ccccc1Cl)Nc1nc2ccc(S(=O)(=O)C3CCN(CC4CC4)C3)cc2s1` (centres unmarked) [Example 144, 2-Chloro-N-[[6-[1-(cyclopropylmethyl)pyrrolidin-3-yl]sulfonylbenzothiazol-2-yl]carbamoyl]benzamide], the IC50 on human GHS receptor [1] turned out to be 201 nM. That is a sub-micromolar value.

At human GHS receptor [1], `CC(C)NCCCS(=O)(=O)c1ccc2nc(NC(=O)NC(=O)c3ccccc3Cl)sc2c1` [Example 145, 2-Chloro-N-[[6-[3-(propan-2-ylamino)propylsulfonyl]benzothiazol-2-yl]carbamoyl]benzamide] gave a 50% inhibitory concentration (IC50) of 59.8 nM.

In the case of `O=C(NC(=O)c1ccccc1Cl)Nc1nc2ccc(S(=O)(=O)CCCN3CCC3)cc2s1` [Example 147, N-[[6-[3-(Azetidin-1-yl)propylsulfonyl]benzothiazol-2-yl]carbamoyl]-2-chloro-benzamide], at human GHS receptor [1], the IC50 stood at 78.8 nM.

At human GHS receptor [1], `O=C(NC(=O)c1ccccc1Cl)Nc1nc2ccc(S(=O)(=O)CCCN3CCCC3)cc2s1` [Example 149, 2-Chloro-N-[[6-(3-pyrrolidin-1-ylpropylsulfonyl)benzothiazol-2-yl]carbamoyl]benzamide] registered an IC50 of 52.2 nM.

`O=C(NC(=O)c1ccccc1Cl)Nc1nc2ccc(S(=O)(=O)CCCN3CCC(F)(F)C3)cc2s1` [Example 154, 2-Chloro-N-[[6-[3-(3,3-difluoropyrrolidin-1-yl)propylsulfonyl]benzothiazol-2-yl]carbamoyl]benzamide]: the IC50 at human GHS receptor [1] is 117 nM. This IC50 is about 2.2-fold higher than that of the molecule before.

Take `O=C(NC(=O)c1ccccc1Cl)Nc1nc2ccc(S(=O)(=O)C[C@H]3CCCN3CC3CC3)cc2s1` [Example 156, 2-Chloro-N-[[6-[[(2R)-1-(cyclopropylmethyl)pyrrolidin-2-yl]methylsulfonyl]benzothiazol-2-yl]carbamoyl]benzamide]: the IC50 at human GHS receptor [1] came out at 64 nM.

`O=C(NC(=O)c1ccccc1Cl)Nc1nc2ccc(S(=O)(=O)CCCN3CCC(F)C3)cc2s1` (centres unmarked) [Example 157, 2-Chloro-N-[[6-[3-(3-fluoropyrrolidin-1-yl)propylsulfonyl]benzothiazol-2-yl]carbamoyl]benzamide] gave a half-inhibitory concentration (IC50) at human GHS receptor [1] of 78.5 nM. The IC50 values of the last two molecules are within 1.5-fold of each other.

`O=C(NC(=O)c1ccccc1Cl)Nc1nc2ccc(S(=O)(=O)CCCN3CCC(F)(F)CC3)cc2s1` [Example 158, 2-Chloro-N-[[6-[3-(4,4-difluoro-1-piperidyl)propylsulfonyl]benzothiazol-2-yl]carbamoyl]benzamide] registered an IC50 at human GHS receptor [1] of 104 nM.

Consider `O=C(NC(=O)c1ccccc1Cl)Nc1nc2ccc(S(=O)(=O)CCCN3CCC(O)C3)cc2s1` (centres unmarked) [Example 160, 2-Chloro-N-[[6-[3-(3-hydroxypyrrolidin-1-yl)propylsulfonyl]benzothiazol-2-yl]carbamoyl]benzamide], for which, on human GHS receptor [1], the IC50 was determined as 29.6 nM.

In turn, `CCN1CCC(S(=O)(=O)c2ccc3nc(NC(=O)NC(=O)c4ccccc4Cl)sc3c2)C1` (centres unmarked) [Example 163, 2-Chloro-N-[[6-(1-ethylpyrrolidin-3-yl)sulfonylbenzothiazol-2-yl]carbamoyl]benzamide] registered an IC50 at human GHS receptor [1] of 613 nM. This IC50 lies about 21-fold higher than the previous one.

`CN1CCC(S(=O)(=O)c2ccc3nc(NC(=O)NC(=O)c4ccccc4Cl)sc3c2)C1` (centres unmarked) [Example 167, 2-Chloro-N-[[6-(1-methylpyrroldin-3-yl)sulfonylbenzothazol-2-yl]carbamoyl]benzamide] displayed a concentration for half-maximal inhibition (IC50) on human GHS receptor [1] of 109 nM.

On human GHS receptor [1], `CN1CCC[C@@H]1CS(=O)(=O)c1ccc2nc(NC(=O)NC(=O)c3ccccc3Cl)sc2c1` [Example 169, 2-Chloro-N-[[6-[[(2R)-1-methylpyrrolidin-2-yl]methylsulfonyl]benzothiazol-2-yl]carbamoyl]benzamide] yielded an IC50 of 151 nM. The IC50 values of the last two molecules are within 1.5-fold of each other.

On human GHS receptor [1], `CC(C)N1CCC(S(=O)(=O)c2ccc3nc(NC(=O)NC(=O)c4ccccc4Cl)sc3c2)CC1` [Example 174, 2-Chloro-N-[[6-[(1-propan-2-yl-4-piperidyl)sulfonyl]benzothiazol-2-yl]carbamoyl]benzamide] came in with an IC50 of 139 nM.

The molecule `O=C(NC(=O)c1ccccc1Cl)Nc1nc2ccc(S(=O)(=O)C3CCNCC3)cc2s1` [Example 176, 2-Chloro-N-[[6-(4-piperidylsulfonyl)benzothiazol-2-yl]carbamoyl]benzamide] gave a half-inhibitory concentration (IC50) at human GHS receptor [1] of 13.2 nM.

Regarding `CN1CCC(S(=O)(=O)c2ccc3nc(NC(=O)NC(=O)c4ccccc4Cl)sc3c2)CC1` [Example 184, 2-Chloro-N-[[6-[(1-methyl-4-piperidyl)sulfonyl]benzothiazol-2-yl]carbamoyl]benzamide], the concentration for half-maximal inhibition (IC50) at human GHS receptor [1] was 33.7 nM. Against the preceding molecule, the IC50 is about 2.6-fold higher.

With `CC(C)N1CC(S(=O)(=O)c2ccc3nc(NC(=O)NC(=O)c4ccccc4Cl)sc3c2)C1` [Example 186, 2-Chloro-N-[[6-(1-propan-2-ylazetidin-3-yl)sulfonylbenzothiazol-2-yl]carbamoyl]benzamide], the 50% inhibitory concentration (IC50) at human GHS receptor [1] amounted to 34.1 nM.

As for `COc1cc(Cl)c(C(=O)NC(=O)Nc2nc3ccc(S(=O)(=O)C4CCNCC4)cc3s2)cc1-n1cccn1` [Example 263, 2-chloro-4-methoxy-N-(6-(piperidin-4-ylsulfonyl)benzo [d]thiazol-2-ylcarbamoyl) 5-(1H-pyrazol-1-yl)benzamide], the IC50 on human GHS receptor [1] was 1.12 nM.

As for `CC(C)Oc1cc(Cl)c(C(=O)NC(=O)Nc2nc3ccc(S(=O)(=O)C4CCN(C)CC4)cc3s2)cc1-n1cccn1` [Example 267, 2-chloro-4-isopropoxy-N-(6-(1-methylpiperidin-4-ylsulfonyl)benzo [d]thiazol-2-ylcarbamoyl) 5-(1H-pyrazol-1-yl)benzamide], the concentration for half-maximal inhibition (IC50) on human GHS receptor [1] stood at 1.5 nM.

As for `CN(C)C1CC(Oc2ccc(Cl)c(C(=O)NC(=O)Nc3nc4ccc(S(C)(=O)=O)cc4s3)c2)C1` (centres unmarked) [Example 269, 2-Chloro-5-(3-dimethylaminocyclobutoxy)-N-[(6-methylsulfonyl-1,3-benzothiazol-2-yl)carbamoyl]benzamide], the IC50 on human GHS receptor [1] came out at 8730 nM.

With `CN(C)CC1CCN(c2ccc(Cl)c(C(=O)NC(=O)Nc3nc4ccc(S(C)(=O)=O)cc4s3)c2)C1` (centres unmarked) [Example 270, 2-Chloro-5-[3-(dimethylaminomethyl)pyrrolidin-1-yl]-N-[(6-methylsulfonyl-1,3-benzothiazol-2-yl)carbamoyl]benzamide], the IC50 at human GHS receptor [1] was determined as 762 nM.

The values above are taken from US20120115845A1, “THERAPEUTIC AGENTS” (priority 2007, published 2012).
